According to patent publication US20260166039A1 (SCHRÖDINGER, INC., priority 2022, published 2026):
Where two headings read alike, the source gives them in different places.

How the values were obtained:
[1] = tested on: phosphorylation of Cdc2 Y15 (Wee1 substrate) in A427 cells; assay: Phosphorylated Cdc2 MSD Electrochemiluminescence Assay; format: cell-based
Method in brief: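 A427 cells (RPMI 1640, 10% FBS) treated 20 h after plating with 3-fold serial compound dilutions, in duplicate, 37 °C, 5% CO2; total incubation 6 h. Lysate Cdc2 pY15 read by MSD electrochemiluminescence sandwich immunoassay; % remaining signal normalised to DMSO (high) and reference Wee1 inhibitor (low) controls.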

Wee1 kinase domain = target: T1, Wee1 kinase domain (Homo sapiens, UniProt P30291); assay: Wee1 Kinase Biochemical Assay (ADP-Glo); details: 15 uM ATP
T1 construct: Wee1 kinase domain was purchased from Carna (catalog #05-177); purchased Carna 05-177
Method in brief: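 1 nM enzyme; 15 uM ATP; 2 ng/mL poly(Lys,Tyr 4:1); 40 mM Tris-HCl, 20 mM MgCl2, 0.1 mg/mL BSA, 2 mM DTT; 4 h, 25 °C; ADP-Glo; % inhibition vs DMSO and saturating positive-control wells.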

[2] = Homo sapiens, A-427, class symbols, read-out: A427 pCDC2 MSD IC50
[3] = class symbols, 1 nM Wee1 enzyme, 4 hours at 25° C.

T1 sequence (P30291 299-569 limits assumed): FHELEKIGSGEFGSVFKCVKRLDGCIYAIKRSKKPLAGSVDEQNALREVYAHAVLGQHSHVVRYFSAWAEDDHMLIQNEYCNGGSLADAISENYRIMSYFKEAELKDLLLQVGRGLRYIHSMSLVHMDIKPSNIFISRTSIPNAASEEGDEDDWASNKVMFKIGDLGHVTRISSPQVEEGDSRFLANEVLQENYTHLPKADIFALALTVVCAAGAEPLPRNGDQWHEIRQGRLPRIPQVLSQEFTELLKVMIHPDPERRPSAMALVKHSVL

Row | SMILES | IC50 [1, 2] | IC50 (Wee1 kinase domain; [3]) | IC50 ([1]; Homo sapiens, A-427, pCDC2 MSD) | IC50 (Wee1 kinase domain; Wee1 kinase domain, ADP-Glo) | IC50 ([1]; pCDC2 MSD)
1 | CN1C[C@@H]2C[C@H]1CN2c1ccc(Nc2ncc3c(n2)N(c2cccc(N=S(C)(C)=O)n2)[C@@H]2CC(C)(C)OC[C@]32C)cc1 (single isomer, unassigned) [Example 124] | – | – | < 100 nM | < 10 nM | –
2 | Cc1cc(Nc2ncc3c(n2)N(c2cccc(N=S(C)(C)=O)n2)[C@@H]2CC(C)(C)OC[C@]32C)ccc1[C@H]1CCNC1 (single isomer, unassigned) [Example 149] | – | – | 100 to 1000 nM | < 10 nM | –
3 | CN[C@@H](Cc1ccc(Nc2ncc3c(n2)N(c2cccc(N4C(=O)OC[C@@H]4C)n2)[C@@H]2CC(C)(C)OC[C@]32C)cc1)C(=O)O (single isomer, unassigned) [Example 321] | – | – | 100 to 1000 nM | < 10 nM | –
4 | Cc1cc(Nc2ncc3c(n2)N(c2cccc(C(C)(C)O)n2)[C@@H]2CC(C)(C)OC[C@]32C)ccc1C1CCN(C)CC1 (single isomer, unassigned) [Example 8] | – | – | 100 to 1000 nM | < 10 nM | –
5 | C[C@H]1COC(=O)N1c1cccc(N2c3nc(Nc4ccc(N5C[C@@H]6C[C@H]5CN6C)c(F)c4)ncc3[C@@]3(C)COC(C)(C)C[C@@H]23)n1 (single isomer, unassigned) [Example 293] | – | – | 100 to 1000 nM | < 10 nM | –
6 | CN1CC[C@H](c2ccc(Nc3ncc4c(n3)N(c3cccc(N=S(C)(C)=O)n3)[C@@H]3CC(C)(C)OC[C@]43C)cc2)C1 (single isomer, unassigned) [Example 133] | – | – | 100 to 1000 nM | < 10 nM | –
7 | CC1(C)C[C@H]2N(c3cccc(N=S(C)(C)=O)n3)c3nc(Nc4ccn5ccnc5c4)ncc3[C@@]2(C)CO1 (single isomer, unassigned) [Example 379] | – | – | 100 to 1000 nM | < 10 nM | –
8 | Cc1ccc(Nc2ncc3c(n2)N(c2cccc(N=S(C)(C)=O)n2)[C@@H]2CC(C)(C)OC[C@]32C)nn1 (single isomer, unassigned) [Example 364] | – | – | 100 to 1000 nM | < 10 nM | –
9 | C[C@H]1COC(=O)N1c1cccc(N2c3nc(Nc4ccc([C@H]5CCNC5)cc4)ncc3[C@@]3(C)COC(C)(C)C[C@@H]23)n1 (single isomer, unassigned) [Example 279] | – | – | 100 to 1000 nM | < 10 nM | –
10 | CC1(C)C[C@H]2N(c3cccc(N=S(C)(C)=O)n3)c3nc(NC(=O)[C@H]4C[C@@H]4c4ccccc4)ncc3[C@@]2(C)CO1 (single isomer, unassigned) [Example 397] | – | – | – | < 10 nM | 100 to 1000 nM
11 | CNCc1cccc(N2c3nc(Nc4ccc(N5CCN(C)CC5)cc4)ncc3[C@@]3(C)COC(C)(C)C[C@@H]23)n1 (single isomer, unassigned) [Example 94] | – | – | 100 to 1000 nM | < 10 nM | –
12 | C[C@H]1COC(=O)N1c1cccc(N2c3nc(Nc4ccc(OC5CCNCC5)nc4)ncc3[C@@]3(C)COC(C)(C)C[C@@H]23)n1 (single isomer, unassigned) [Example 325] | – | – | 100 to 1000 nM | < 10 nM | –
13 | C[C@H]1COC(=O)N1c1cccc(N2c3nc(Nc4ccc(C5CN(C)C5)cc4)ncc3[C@@]3(C)COC(C)(C)C[C@@H]23)n1 (single isomer, unassigned) [Example 311] | – | – | 100 to 1000 nM | < 10 nM | –
14 | CN1[C@@H]2C[C@H]1CN(c1ccc(Nc3ncc4c(n3)N(c3cccc(N5CCOC5=O)n3)[C@@H]3CC(C)(C)OC[C@]43C)cc1)C2 [Example 700, 3-(6-((4bR,8aR)-4b,7,7-trimethyl-2-((4-((1R,5S)-6-methyl-3,6-diazabicyclo[3.1.1]heptan-3-yl)phenyl)amino)-4b,7,8,8a-tetrahydropyrano[3′,4′:4,5]pyrrolo[2,3-d]pyrimidin-9(5H)-yl)pyridin-2-yl)oxazolidin-2-one] | 100 to 1000 nM | < 10 nM | – | – | –
15 | CNCc1cccc(N2c3nc(Nc4ccc(N5C[C@@H](C)O[C@@H](C)C5)cc4)ncc3[C@]3(C)COC(C)(C)C[C@H]23)n1 (single isomer, unassigned) [Example 20] | – | – | 100 to 1000 nM | < 10 nM | –
16 | CNCc1cccc(N2c3nc(Nc4ccc(C5(C)COC5)cc4)ncc3[C@]3(C)COC(C)(C)C[C@H]23)n1 (single isomer, unassigned) [Example 82] | – | – | 100 to 1000 nM | < 10 nM | –
17 | C[C@H]1COC(=O)N1c1cccc(N2c3nc(Nc4ccc(O[C@H]5CCN(C)C5)cc4)ncc3[C@@]3(C)COC(C)(C)C[C@@H]23)n1 (single isomer, unassigned) [Example 333] | – | – | 100 to 1000 nM | < 10 nM | –
18 | Cc1cc(Nc2ncc3c(n2)N(c2cccc(N4C(=O)OC[C@@H]4C)n2)[C@@H]2CC(C)(C)OC[C@]32C)ccc1N1CCN(C)CC1 (single isomer, unassigned) [Example 237] | – | – | < 100 nM | < 10 nM | –
19 | CNCc1cccc(N2c3nc(Nc4ccc(N5CCS(=N)(=O)CC5)cc4)ncc3[C@@]3(C)COC(C)(C)C[C@@H]23)n1 (single isomer, unassigned) [Example 49] | – | – | 100 to 1000 nM | < 10 nM | –
20 | CC1(C)C[C@H]2N(c3cccc(N=S(C)(C)=O)n3)c3nc(Nc4ccn(C5CCOCC5)c(=O)c4)ncc3[C@@]2(C)CO1 (single isomer, unassigned) [Example 233] | – | – | 100 to 1000 nM | < 10 nM | –

The remaining lines, values ahead:

Row | IC50 [1, 2] | IC50 (Wee1 kinase domain; [3]) | IC50 ([1]; Homo sapiens, A-427, pCDC2 MSD) | IC50 (Wee1 kinase domain; Wee1 kinase domain, ADP-Glo) | IC50 ([1]; pCDC2 MSD) | SMILES
21 | < 100 nM | < 10 nM | – | – | – | CC1(C)C[C@H]2N(c3cccc(P(C)(C)=O)n3)c3nc(Nc4ccn([C@H]5CCOC5)c(=O)c4)ncc3[C@@]2(C)CO1 [Example 782, 4-(((4bR,8aR)-9-(6-(dimethylphosphoryl)pyridin-2-yl)-4b,7,7-trimethyl-4b,5,7,8,8a,9-hexahydropyrano[3′,4′:4,5]pyrrolo[2,3-d]pyrimidin-2-yl)amino)-1-((S)-tetrahydrofuran-3-yl)pyridin-2(1H)-one]
22 | 100 to 1000 nM | < 10 nM | – | – | – | CNCc1cccc(N2c3nc(Nc4cnn(C)c4)ncc3[C@@]3(C)COC(C)(C)C[C@@H]23)n1 (single isomer, unassigned) [Example 472]
23 | 100 to 1000 nM | < 10 nM | – | – | – | Cc1cc(Nc2ncc3c(n2)N(c2cccc([C@@H]4CCCN4)n2)[C@@H]2CC(C)(C)OC[C@]32C)ccc1N1CCOCC1 (single isomer, unassigned) [Example 529]
24 | 100 to 1000 nM | < 10 nM | – | – | – | CC1(C)C[C@H]2N(c3cccc(N4CCOC4=O)n3)c3nc(Nc4ccc([C@@H]5CNCC5(F)F)cc4)ncc3[C@@]2(C)CO1 [Example 680, 3-(6-((4bR,8aR)-2-((4-((R)-4,4-difluoropyrrolidin-3-yl)phenyl)amino)-4b,7,7-trimethyl-4b,7,8,8a-tetrahydropyrano[3′,4′:4,5]pyrrolo[2,3-d]pyrimidin-9(5H)-yl)pyridin-2-yl)oxazolidin-2-one]
25 | < 100 nM | < 10 nM | – | – | – | Cn1cc(Nc2ncc3c(n2)N(c2cccc(N=S(C)(C)=O)n2)[C@@H]2CC(C)(C)OC[C@]32C)cn1 (single isomer, unassigned) [Example 484]
26 | 100 to 1000 nM | < 10 nM | – | – | – | CC1(C)C[C@H]2N(c3cccc(N4CCOC4=O)n3)c3nc(Nc4ccc(C5CNC5)cc4)ncc3[C@@]2(C)CO1 [Example 666, 3-(6-((4bR,8aR)-2-((4-(azetidin-3-yl)phenyl)amino)-4b,7,7-trimethyl-4b,7,8,8a-tetrahydropyrano[3′,4′:4,5]pyrrolo[2,3-d]pyrimidin-9(5H)-yl)pyridin-2-yl)oxazolidin-2-one]
27 | 100 to 1000 nM | < 10 nM | – | – | – | CC1(C)C[C@H]2N(c3cccc(N=S(C)(C)=O)n3)c3nc(Nc4cnn(C(F)(F)F)c4)ncc3[C@@]2(C)CO1 (single isomer, unassigned) [Example 488]
28 | 100 to 1000 nM | < 10 nM | – | – | – | CN1C[C@@H]2CN(c3ccc(Nc4ncc5c(n4)N(c4cccc(C(C)(C)O)n4)[C@@H]4CC(C)(C)OC[C@]54C)cc3)C[C@@H]2C1 (single isomer, unassigned) [Example 446]
29 | 100 to 1000 nM | < 10 nM | – | – | – | CN1CC2(C1)CN(c1ccc(Nc3ncc4c(n3)N(c3cccc(P(C)(C)=O)n3)[C@@H]3CC(C)(C)OC[C@]43C)cc1)C2 (single isomer, unassigned) [Example 775]
30 | 100 to 1000 nM | < 10 nM | – | – | – | Cn1ncc(Nc2ncc3c(n2)N(c2cccc(N=S(C)(C)=O)n2)[C@@H]2CC(C)(C)OC[C@]32C)c1F (single isomer, unassigned) [Example 490]
31 | 100 to 1000 nM | < 10 nM | – | – | – | CNCc1cccc(N2c3nc(Nc4cccc(N5CCOCC5)c4)ncc3[C@@]3(C)COC(C)(C)C[C@@H]23)n1 (single isomer, unassigned) [Example 470]
32 | < 100 nM | < 10 nM | – | – | – | CN[C@H]1CCc2ccc(N3c4nc(Nc5ccc(N6CCOCC6)cc5)ncc4C4(C)COC(C)(C)CC34)nc21 (stereo in doubt) [Example 551, (4bR,8aR)-4b,7,7-trimethyl-9-((S)-7-(methylamino)-6,7-dihydro-5H-cyclopenta[b]pyridin-2-yl)-N-(4-morpholinophenyl)-4b,5,7,8,8a,9-hexahydropyrano[3′,4′:4,5]pyrrolo[2,3-d]pyrimidin-2-amine]
33 | 100 to 1000 nM | < 10 nM | – | – | – | Cc1cc(Nc2ncc3c(n2)N(c2cccc(N4CCOC4=O)n2)[C@@H]2CC(C)(C)OC[C@]32C)ccc1N1C[C@@H]2C[C@H]1CN2C [Example 654, 3-(6-((4bR,8aR)-4b,7,7-trimethyl-2-((3-methyl-4-((1S,4S)-5-methyl-2,5-diazabicyclo[2.2.1]heptan-2-yl)phenyl)amino)-4b,7,8,8a-tetrahydropyrano[3′,4′:4,5]pyrrolo[2,3-d]pyrimidin-9(5H)-yl)pyridin-2-yl)oxazolidin-2-one]
